Consider 20 compounds from patent US20220251081A1, “HETEROBICYCLIC INHIBITORS OF MAT2A AND METHODS OF USE FOR TREATING CANCER” (priority 2019, published 2022).

Structures are written as SMILES.

The subject of one test is HCT116 MTAP +/+. Briefly: Inhibition of cellular proliferation, 4 days, Cell Titer Glo, HCT116 MTAP+/+. The settings on record: Homo sapiens, HCT-116, 96 h, IC50 score, read-out: 4 Day Relative Growth Inhibition (MTAP +/+). The test is classed as cell-based. The method, then: (§1) Assay for Inhibition of Cellular Proliferation
(§2) Test compound impact on cancer cell growth was assessed by treating cancer cells with compound for 4 days and then measuring proliferation using an ATP-based cell proliferation readout (Cell Titer Glo, Promega Corporation).
(§3) In a typical assay an isogenic pair of HCT116 human colon carcinoma cell lines which vary only in MTAP deletion status (HCT116 MTAP +/+ and HCT116 MTAP−/−) were plated in 96-well dishes at appropriate cell density. Following 24 hours, cells were then treated with the candidate MAT2A inhibitor. Prior to addition to cells, the compound was first serially diluted in 100% DMSO, typically as a 3-fold serial dilution starting at 500× top dose with 10 dose points including DMSO only control. Compound was then transferred to a working stock plate in cell culture media by adding 5 μL of compound in DMSO to 495 μL of cell culture media. This working stock was then added to cells via a further 5-fold dilution, by adding 25 μL of working stock to 100 μL of cells in culture media. Following compound addition, cells were incubated at 37° C./5% C02 for 4 days.
(§4) To measure inhibition of cellular proliferation, cells were allowed to equilibrate to room temperature for 30 minutes, and were then treated with 125 μL of Cell Titer Glo reagent. The plate was then covered with aluminum foil and shaken for 15 minutes to ensure complete mixing and full cell lysis. Luminescent signal was then measured using a plate-based luminometer Veritas version 1.9.2 using ATP standard curve to confirm assay reproducibility from run to run. This luminescence measure was converted to a proliferation index by subtracting from each data point the ATP luminescence signal measured from a bank (no cells) well and dividing by the ATP luminescence signal measured in 0.2% DMSO control well adjusted for signal in blank well. Compound activity was then represented as a percentage change in proliferation relative to a within-plate DMSO control against log 10 of compound concentration in molar (M) units.

A further test concerns HCT116 MTAP-/-. Briefly: Inhibition of cellular proliferation, 4 days, Cell Titer Glo, HCT116 MTAP-/-. The test is classed as cell-based. The settings on record: Homo sapiens, HCT-116, 96 h, IC50 score, read-out: 4 Day Relative Growth Inhibition (MTAP −/−). The method, then:
as §1, §2, §3, §4
In general terms: Cellular ATP, detected with luciferase, serves as a proxy for viable cell number.

Test [1] concerns SAM in HCT116 human colon carcinoma cell line with deleted MTAP gene. Briefly: Cellular assay of target engagement (SAM): SAM level by LC-MS/MS after 72 hrs. It counts as cell-based. The settings on record: HCT-116, IC50 score, read-out: Cell 72 h SAM Inhibition (MTAP −/−). As for the experimental part: Cellular Assay of Target Engagement (SAM)
Measurement of MAT2A activity in cells was made by direct quantitation of the abundance of the product of its enzymatic activity, SAM. Cancer cells were treated with candidate MAT2A inhibitors for a suitable incubation period, and the cells were then lysed using a reagent which quenched any further enzyme activity. Soluble metabolites including SAM were collected and SAM itself was directly measured from the lysate using quantitative LC-MS/MS.
A typical assay was performed using an HCT116 human colon carcinoma cell line which was genetically engineered to delete the MTAP gene (commercially available from Horizon Discovery). This cell line was utilized because it was determined that loss of the MTAP gene predicts sensitivity to MAT2A inhibitors. Cells were plated in 96-well dishes at appropriate cell density. Following 24 hours, cells were then treated with the candidate MAT2A inhibitor. Prior to addition to cells, the compound was first serially diluted in 100% DMSO, typically as a 3-fold serial dilution starting at 500× top dose with 10 dose points including DMSO only control. Compound was then transferred to a working stock plate in cell culture media by adding 5 μL of compound in DMSO to 495 μL of cell culture media. This working stock was then added to cells via a further 5-fold dilution, by adding 25 μL of working stock to 100 μL of cells in culture media. Following compound addition, cells were incubated at 37° C./5% CO2 for 72 hrs.
To quantitate SAM levels following compound treatment, cells were gently washed once in ammonium carbonate buffer (75 mM at pH 7.4), placed on dry ice, and lysed with metabolite extraction buffer (80% cold methanol and 20% water (v/v) with acetic acid at 1M final concentration with 200 ng/mL deuterated d3-SAM as internal control). Following centrifugation at 4° C. at 3,200 rpm for 30 minutes, the supernatant was collected and stored at −80° C. until analysis by Liquid Chromatography with tandem Mass Spectrometry (LC-MS/MS). LC-MS/MS analysis was performed using an API6500 Mass Spectrometer (Sciex, Framingham, Mass., USA) operating in positive ion spray mode and equipped with a Waters UPLC Acquity (Waters, Milford, Mass., USA) BEH Amide column. Multiple Reaction Monitoring data was acquired for SAM and the d3-SAM standard, using a mass transition pair at m/z 399.2→250.1 and 402.2→250.1, respectively. In a typical LC-MS/MS analysis, the initial flow rate was 0.5 ml/min of 25% mobile phase A (acetonitrile and water at 5:95 (v/v) with 1% formic acid and 10 mM ammonium acetate) and 75% mobile phase B (acetonitrile and water at 95:5 (v/v) with 1% formic acid and 10 mM ammonium acetate), 0.2-0.5 minutes with 75%-35% mobile phase B, 25%-65% mobile phase A, at 0.5 min 65% mobile phase A and 35% mobile phase B, 1.0-1.1 minutes with 35%-75% mobile phase B, 65%-25% mobile phase A, at 1.1 min 25% mobile phase A and 75% mobile phase B with a total run time of 1.5 minutes.

The target in another test is T1, MAT2A homodimer (Homo sapiens, UniProt P31153).
T1 construct: inferred from Ni sepharose purification and imidazole elution; made in house; host or cells: Sf9 insect cells, recombinant baculovirus (Bac to Bac, pFASTBAC1 vector)
Briefly: Biochemical assay: inhibition of recombinant MAT2A homodimer (phosphate release, PiColorLock Gold). The settings on record: MAT2A IC50 score; read-out: Enzyme Inhibition. An outline of the steps: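 Baculovirus/Sf9-expressed, Ni-purified MAT2A at 4 μg/mL in pH 8.0 Tris/KCl/MgCl2/EDTA/BSA buffer, preincubated with compound 60 min at 25 °C. Started with ATP and L-methionine substrate mix (500 μM and 40 μM, stock in mix), 60 min at 25 °C; released phosphate by PiColorLock Gold against a phosphate standard curve.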

T1 sequence (P31153 whole entry): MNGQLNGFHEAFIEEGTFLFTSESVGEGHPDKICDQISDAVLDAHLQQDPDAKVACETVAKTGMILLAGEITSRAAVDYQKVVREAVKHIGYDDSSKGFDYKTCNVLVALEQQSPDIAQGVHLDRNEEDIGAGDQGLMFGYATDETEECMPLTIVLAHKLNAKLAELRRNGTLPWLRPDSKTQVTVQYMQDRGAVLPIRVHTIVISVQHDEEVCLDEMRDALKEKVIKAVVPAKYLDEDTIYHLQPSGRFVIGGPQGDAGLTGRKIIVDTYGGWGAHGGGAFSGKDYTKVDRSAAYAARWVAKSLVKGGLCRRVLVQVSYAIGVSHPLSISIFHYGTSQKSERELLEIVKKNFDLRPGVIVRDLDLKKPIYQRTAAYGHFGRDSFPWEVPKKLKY

On to `[2H]C([2H])([2H])Oc1ccc(-n2c(=O)c(-c3ccc4nn(C)cc4c3)nc3ccc(OCC(F)(F)F)nc32)cc1` [Example 326], for which the IC50 in the test with HCT116 MTAP +/+ was at least 1 µM; in the test with HCT116 MTAP-/-, below 0.1 µM; in test [1], below 0.1 µM; at MAT2A homodimer it was below 0.1 µM.
In the case of `COc1ccc(-n2c(=O)c(-c3ccc4nncn4c3)cc3ccc(OCC(F)F)nc32)cc1` [Example 194, 3-([1,2,4]triazolo[4,3-a]pyridin-6-yl)-7-(2,2-difluoroethoxy)-1-(4-methoxyphenyl)-1,8-naphthyridin-2(1H)-one], the IC50 is 0.1 to 1 µM in the test with HCT116 MTAP +/+, below 0.1 µM with HCT116 MTAP-/-, below 0.1 µM in test [1] and below 0.1 µM on MAT2A homodimer.
Regarding `CCOc1ccc2cc(-c3ccc(OC)cc3)c(=O)n(-c3ccc(C4CC4)nc3)c2n1` [Example 162], the IC50 with HCT116 MTAP +/+ is at least 1 µM; with HCT116 MTAP-/-, 0.1 to 1 µM; in test [1] it was 0.1 to 1 µM; at MAT2A homodimer, below 0.1 µM.
For the compound `CCOc1cnc2cc(-c3ccc(OC)cc3)c(=O)n(-c3ccc(OC(F)F)cc3)c2n1` [Example 230], the IC50 in the test on HCT116 MTAP +/+ was 0.1 to 1 µM; with HCT116 MTAP-/- it was 0.1 to 1 µM; in test [1], below 0.1 µM; at MAT2A homodimer, below 0.1 µM.
In the case of `COc1ccc(-c2cc3cnc(NCC(F)(F)F)nc3n(-c3ccc(C4CC4)cc3)c2=O)cc1` [Example 118], the IC50 is at least 1 µM in the test on HCT116 MTAP +/+, below 0.1 µM in the test with HCT116 MTAP-/-, below 0.1 µM in test [1] and below 0.1 µM at MAT2A homodimer.
`O=c1c(-c2ccc3nncn3c2)cc2ccc(OCC(F)F)nc2n1-c1ccc(Cl)cc1` [Example 218]: the IC50 in the test with HCT116 MTAP +/+ was at least 1 µM; with HCT116 MTAP-/-, below 0.1 µM; in test [1], below 0.1 µM; on MAT2A homodimer, below 0.1 µM.
For the compound `CCOc1ccc2cc(-c3ccc(=O)n(C)c3)c(=O)n(-c3ccc(OC(F)F)cc3)c2n1` [Example 208], the IC50 in the test on HCT116 MTAP +/+ is 0.1 to 1 µM; in the test on HCT116 MTAP-/-, below 0.1 µM; in test [1], below 0.1 µM; on MAT2A homodimer it was below 0.1 µM.
For `CCOc1ccc2cc(-c3ccn4nccc4c3)c(=O)n(-c3ccc(Cl)cc3)c2n1` [Example 204], the IC50 was at least 1 µM in the test with HCT116 MTAP +/+, below 0.1 µM in the test on HCT116 MTAP-/-, below 0.1 µM in test [1] and below 0.1 µM at MAT2A homodimer.
Turning to `Cn1cc2cc(-c3nc4ccc(OCC(F)(F)F)nc4n(-c4ccc(Br)cc4)c3=O)ccc2n1` [Example 346, 4-(4-bromophenyl)-2-(2-methyl-2H-indazol-5-yl)-6-(2,2,2-trifluoroethoxy)pyrido[2,3-b]pyrazin-3(4H)-one], the IC50 with HCT116 MTAP +/+ is at least 1 µM; with HCT116 MTAP-/-, below 0.1 µM; in test [1] it was below 0.1 µM; at MAT2A homodimer, below 0.1 µM.
As to `CCOc1ccc2cc(-c3ccc(OC)cc3)c(=O)n(-c3ccc(NC)nc3)c2n1` [Example 159], the IC50 with HCT116 MTAP +/+ was at least 1 µM; in the test on HCT116 MTAP-/-, 0.1 to 1 µM; in test [1], below 0.1 µM; at MAT2A homodimer it was below 0.1 µM.
For the compound `COc1ccc(-n2c(=O)c(-c3ccc4nnccc4c3)cc3cnc(NCC(F)(F)F)nc32)cc1` [Example 186], the IC50 with HCT116 MTAP +/+ was at least 1 µM; in the test on HCT116 MTAP-/-, 0.1 to 1 µM; in test [1], below 0.1 µM; at MAT2A homodimer it was below 0.1 µM.
`Cn1cc2cc(-c3nc4ccc(NCC(F)(F)F)nc4n(-c4ccc(OC(F)F)cc4)c3=O)ccc2n1` [Example 225]: the IC50 was at least 1 µM in the test with HCT116 MTAP +/+, below 0.1 µM in the test with HCT116 MTAP-/-, below 0.1 µM in test [1] and below 0.1 µM on MAT2A homodimer.
Take `Cn1cnc2ccc(-c3cc4ccc(NCC(F)(F)F)nc4n(-c4ccc(OC(F)F)cc4)c3=O)cc21` [Example 135]: the IC50 with HCT116 MTAP +/+ is at least 1 µM; with HCT116 MTAP-/-, below 0.1 µM; in test [1], below 0.1 µM; at MAT2A homodimer it was below 0.1 µM.
With `Cn1cc2cc(-c3nc4ccc(OCC(F)F)nc4n(-c4ccc(OC(F)F)cc4)c3=O)ccc2n1` [Example 228], the IC50 is at least 1 µM with HCT116 MTAP +/+, below 0.1 µM in the test with HCT116 MTAP-/-, below 0.1 µM in test [1] and below 0.1 µM at MAT2A homodimer.
In the case of `CCOc1ccc2cc(-c3ccc4nn(CC(C)(C)O)cc4c3)c(=O)n(-c3ccc(OC(F)F)nc3)c2n1` [Example 213], the IC50 in the test with HCT116 MTAP +/+ is at least 1 µM; in the test with HCT116 MTAP-/-, 0.1 to 1 µM; in test [1], 0.1 to 1 µM; on MAT2A homodimer, below 0.1 µM.
Consider `COc1ccc(-c2cc3cnc(NCC(F)(F)F)nc3n(-c3ccc(Br)cc3)c2=O)cc1` [Example 232, 8-(4-bromophenyl)-6-(4-methoxyphenyl)-2-(2,2,2-trifluoroethylamino)pyrido[2,3-d]pyrimidin-7(8H)-one], for which the IC50 was at least 1 µM in the test on HCT116 MTAP +/+, 0.1 to 1 µM in the test on HCT116 MTAP-/-, below 0.1 µM in test [1] and below 0.1 µM at MAT2A homodimer.
As for `[2H]C([2H])([2H])Oc1ccc(-n2c(=O)c(-c3ccc4nn(C)cc4c3)nc3ccc(OC(C)C)nc32)cc1` [Example 331], the IC50 was at least 1 µM with HCT116 MTAP +/+, below 0.1 µM with HCT116 MTAP-/-, below 0.1 µM in test [1] and below 0.1 µM at MAT2A homodimer.
Take `[2H]C([2H])([2H])Oc1ccc(-n2c(=O)c(-c3ccc4nn(C)cc4c3)nc3ccc(OCC(F)F)nc32)cc1` [Example 325]: the IC50 in the test with HCT116 MTAP +/+ is at least 1 µM; in the test on HCT116 MTAP-/-, below 0.1 µM; in test [1] it was below 0.1 µM; at MAT2A homodimer, below 0.1 µM.
Take `CCNc1ccc2cc(-c3ccc4nn(C)cc4c3)c(=O)n(-c3ccc(C)nc3)c2n1` [Example 307]: the IC50 in the test with HCT116 MTAP +/+ is at least 1 µM; in the test with HCT116 MTAP-/-, below 0.1 µM; in test [1], below 0.1 µM; on MAT2A homodimer, below 0.1 µM.
Turning to `[2H]C([2H])([2H])Oc1ccc(-n2c(=O)c(-c3ccc4nn(C([2H])([2H])[2H])cc4c3)cc3ccc(OC([2H])([2H])C([2H])([2H])[2H])nc32)cc1` [Example 303], the IC50 in the test on HCT116 MTAP +/+ is 0.1 to 1 µM; in the test with HCT116 MTAP-/-, below 0.1 µM; in test [1] it was below 0.1 µM; on MAT2A homodimer, below 0.1 µM.
